BindingDB's records for doi:10.1021/acs.jmedchem.3c01236 (University of Toronto Mississauga, 2023)

Target: Histone deacetylase 1 (Homo sapiens, UniProt Q13547)
Assay: Inhibition of HDAC1 (unknown origin) using 6-carboxyfluorescein peptide as substrate preincubated with compound followed by substrate addition by electrophoretic mobility shift assay

Sequence of Histone deacetylase 1 (Q13547 whole entry): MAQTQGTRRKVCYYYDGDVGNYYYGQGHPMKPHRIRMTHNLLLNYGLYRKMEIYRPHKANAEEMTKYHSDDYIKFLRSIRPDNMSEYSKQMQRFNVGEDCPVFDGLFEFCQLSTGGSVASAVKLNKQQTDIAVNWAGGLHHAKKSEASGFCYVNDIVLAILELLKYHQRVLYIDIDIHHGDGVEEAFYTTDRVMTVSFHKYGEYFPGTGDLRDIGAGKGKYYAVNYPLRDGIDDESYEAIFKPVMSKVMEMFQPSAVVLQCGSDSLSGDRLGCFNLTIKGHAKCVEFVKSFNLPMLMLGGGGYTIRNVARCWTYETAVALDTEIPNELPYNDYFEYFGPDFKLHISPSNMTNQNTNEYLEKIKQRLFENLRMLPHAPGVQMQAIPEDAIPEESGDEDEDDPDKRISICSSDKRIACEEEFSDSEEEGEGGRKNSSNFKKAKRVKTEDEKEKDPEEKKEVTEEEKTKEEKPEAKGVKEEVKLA

C=CC(=O)N1CCC(OC(=O)NCc2ccc(C(=O)Nc3ccccc3N)cc2)CC1
IC50: 0.685 µM
